Experimental data published in patent US20030005484A1, “Microbiocidal and pesticidal aromatic aldehydes” (ProGuard, Inc., priority 1994, published 2003).

Columns and labels:
[1] = test system: melon aphid (Aphis gossypli Glover); assay: melon aphid bioassay with Storax formulations; format: in vivo, Aphis gossypii; settings: previous bioassays; plants sprayed to run-off at 1,000 ppm
Method: The purpose of this study was to determine the effect of STORAX incorporated into various formulations to evaluate its potential use as a synergist. Initial bioassays were conducted using STORAX at 0.6%, 1.0%, 2.0% with Tween 80 (1%) only. A second bioassay was conducted to evaluate the efficacy of STORAX (at 0.6%) alone and STORAX (at 0.6%) plus cinnamic aldehyde (at 0.1%) or alpha hexyl cinnamaldehyde (at 0.1%). […] STORAX combined with cinnamic aldehyde or α-hexyl cinnamic aldehyde reduced the time course of lethality and increases mortality. Moreover, the cinnamic aldehyde-STORAX formulation approaches the lethal time (LT) required at 2 h for kill of certain virus transmitting pests (e.g., brown citrus aphid).

powdery mildew = powdery mildew on Cabernet Sauvignon grapes; format: in vivo; settings: for % CLUSTERS INFECTED-FIRST DAY / MEAN # OF BERRIES/CLUSTER INFECTED FIRST DAY: 2 days post treatment; for % CLUSTERS INFECTED-SECOND DAY / MEAN # OF BERRIES/CLUSTER INFECTED SECOND DAY: 10 days post-treatment
Method: The effect of 0.3% and 0.6% cinnamic aldehyde on powdery mildew on grapes was examined. A 3 acre block of Cabernet Sauvignon that was severely infested with powdery mildew (primarily on grape berries) was sprayed with either 0.3% or 0.6% cinnamic aldehyde using a 300 gal. Pul-Blast sprayer at 160 psi fitted with 10, D4 nozels using a #56 core. Approximately 1.25 acres were treated for each cinnamic aldehyde concentration. A 0.5 acre plot of control grape vines were sprayed with a tank mix at label rates of other commercially available pesticides (Abound, Provado, Kelthan, Silwet L-77 and a foliar nutrient spray( 10-12-0+2% zinc)) costing approximately $87.00/acre. For the two cinnamic aldehyde treatments and control plots, 2 rows per treatment were visually inspected for severe powdery mildew infections and marked with flagging tape. At least 10 locations were marked in each row inspected and defined sampling positions for determining efficacy of the treatments. Water sensitive cards were placed at the level of the cordon wire (where grape clusters are located) and were used to monitor spray coverage. Two and ten days subsequent to treatment, samples from two sides of each vine (to include variable powdery mildew incidence due to sun exposure) were examined for powdery mildew. […] 0.3% cinnamic aldehyde reduced powdery mildew infection of grapes to a level similar to the positive control while 0.6% cinnamic aldehyde reduced powdery mildew infection even more than the standard. Upon examination of the mean number of berries infected with powdery mildew, again, it was evident that both 0.3% and 0.6% cinnamic aldehyde reduced the extent of powdery mildew infection to levels that were to similar or less than the positive control respectively.

[2] = test system: leafhoppers (western grape leafhopper and Virginia creeper leafhopper nymphs); assay: leafhoppers on grapevines, 1% and 2% spray; format: in vivo; settings: for mean number of leafhoppers per leaf: one day after treatment, across cultivars, control 26.53
Method: Treatment of leafhoppers (western grape leafhopper (WGL) and Virginia creeper leafhopper nymphs(VCLH)) on grapevines with cinnamic aldehyde was conducted to evaluate the protective effect of cinnamic aldehyde in different concentrations against leafhoppers on plants. A single application of 1% or 2% cinnamic aldehyde in 0.1% Tween-20 was sprayed onto the leaves of grapevines of different grape varietals (Cabernet Sauvignon, Chardonnay, Emerald Reisling and Pinot Noir) with a backpack CO2 powered sprayer at the field equivalent rate of approximately 150 gal./acre (0.5 gal. per treatment plot). Coverage on the bottom of grape leaves, where most leafhopper nymphs feed, ranged from 70%-80%. The number of leafhoppers on the leaves was counted prior to spraying and 1 day after spraying. Leafhopper numbers on grape vines were assessed by sampling 2 leaves from each of 3 grape vines per treatment (with a single vine buffer between each treatment), for which 2-3 replicates per treatment were examined. Control plants were untreated. Both concentrations of cinnamic aldehyde reduced the mean number of leafhoppers per leaf as compared to the control. The mean number of leafhoppers was defined as the sum of WGL plus VCLH per leaf.

phylloxera Biotype A = assay: planter / field box vines, leaf spray, phylloxera population on roots; format: in vivo, Daktulosphaira vitifoliae; settings: Chardonnay (2 treatments), two weeks
pacific mites [3] = assay: pacific mites on Chardonnay grapes, 0.4% spray; format: in vivo
Method: The effect of 0.4% cinnamic aldehyde on powdery mildew and pacific mites on grapes was examined. Cinnamic aldehyde was diluted to 0.4% in water and sprayed onto a 1.8 acre test plot of Chardonnay grapevines with a tractor drawn, PTO powered sprayer, spraying at approximately 100 psi at a rate of 150 gal./acre. A 3 acre untreated plot served as a negative control. Additional controls included treatment of a 3.8 acre plot with stylet oil and a plot treated with a mix of Rubigan, Omite, and stylet oil, which cost appriximately $60.00/acre. Spray cards were placed randomly through the test block. Ten fruit clusters, which were generally completely covered with powdery mildew, in each of the four fields were flagged. […] Therefore, cinnamic aldehyde was effective at controlling both powdery mildew and pacific mites on grapes.

pacific mites [4] = assay: pacific mites on Chardonnay grapevines; format: in vivo; settings: for PERCENT INHIBITION / POST-SPRAY MITES: 150 gal./acre, 4 days after spraying; for PRE-SPRAY MITES: baseline
Method: The effect of 0.3% and 0.6% cinnamic aldehyde on pacific mites on grapevine leaves was examined cinnamic aldehyde was diluted to 0.3% and 0.6% in water. Each formulation was sprayed onto a 1 acre block of Chardonnay wine grapes with a tractor-drawn 500 gal. hydraulic sprayer at 150 psi at a rate of 150 gal./acre. As a control, a 10-acre block of Chardonnay wine grapes was treated the same day as the test formulations with the conventional treatment (Omite) per label directions. The number of mites was counted the day prior to spraying and 4 days after spraying. […] In fact, both concentrations reduced the number of mites to a larger extent than the positive control, conventional treatment, Omite. The 0.6% rate nearly eliminated live mites on grapevines. […] The 0.6% was slightly beter than the 0.3 % cinnamic aldehyde with respect to powdery mildew control.

[5] = CNMA 0.4% in water, 150 gal./acre, controls stylet oil, chemical mix

In the case of `O=C/C=C/c1ccccc1` [cinnamic aldehyde], the “time at which an LD50 was observed” value [1] is reported as 2 h, the “time at which an LD75 was observed” value [1] is reported as 24 h and the “% CLUSTERS INFECTED-FIRST DAY” value (powdery mildew; 0.3% CNMA) is reported as 60%. The “MEAN # OF BERRIES/CLUSTER INFECTED FIRST DAY” value (powdery mildew; 0.3% CNMA) was 3.1, the “% CLUSTERS INFECTED-SECOND DAY” value (powdery mildew; 0.3% CNMA) was 0.22% and the “MEAN # OF BERRIES/CLUSTER INFECTED SECOND DAY” value (powdery mildew; 0.3% CNMA) was 0.72. For the same molecule, the “% CLUSTERS INFECTED-FIRST DAY” value (powdery mildew; 0.6% CNMA) was 25%, the “MEAN # OF BERRIES/CLUSTER INFECTED FIRST DAY” value (powdery mildew; 0.6% CNMA) was 0.5 and the “% CLUSTERS INFECTED-SECOND DAY” value (powdery mildew; 0.6% CNMA) was 0.2%. The “MEAN # OF BERRIES/CLUSTER INFECTED SECOND DAY” value (powdery mildew; 0.6% CNMA) was 0.25, the “time control of powdery mildew was maintained” value (powdery mildew; both treatments, 0.3% and 0.6%) was “at least three weeks” and the “mean number of leafhoppers per leaf” value ([2]; 1% in 0.1% Tween-20) was 4.33 leafhoppers per leaf. The “mean number of leafhoppers per leaf” value ([2]; 2% in 0.1% Tween-20) was 2.13 leafhoppers per leaf, the “MEAN LEAFHOPPERS/LEAF” value ([2]; Cabernet, 1% CNMA, control 15.33) was 3.0 and the “MEAN LEAFHOPPERS/LEAF” value ([2]; Chardonnay, 2% CNMA, control 23.75) was 3.83. The “MEAN LEAFHOPPERS/LEAF” value ([2]; Emerald Reisling, 1% CNMA, control 51.12) was 5.67, the “MEAN LEAFHOPPERS/LEAF” value ([2]; Pinot Noir, 2% CNMA, control 19.44) was 1.0 and the “Number of phylloxera per root piece” value (phylloxera Biotype A; 1 K CNMA) was 637. For the same molecule, the “Number of phylloxera per root piece” value (phylloxera Biotype A; 10 K CNMA) was 102, the “% INHIBITION (MITES)” value (pacific mites [3]; [5]) was 96% and the “MITES POST-SPRAY” value (pacific mites [3]; [5]) was 1.6. The “MITES PRE-SPRAY” value (pacific mites [3]; baseline, CNMA 0.4% plot, stylet oil plot, chemical mix plot) was 36, the “PERCENT INHIBITION” value (pacific mites [4]; 0.3% CNMA in water) was 89% and the “POST-SPRAY MITES” value (pacific mites [4]; 0.3% CNMA in water) was 4.5. For the same molecule, the “PERCENT INHIBITION” value (pacific mites [4]; 0.6% CNMA in water) was 98%, the “POST-SPRAY MITES” value (pacific mites [4]; 0.6% CNMA in water) was 0.5 and the “PRE-SPRAY MITES” value (pacific mites [4]; day prior to spraying 0.3% CNMA) was 41.4. The “PRE-SPRAY MITES” value (pacific mites [4]; day prior to spraying 0.6% CNMA) was 32.5.
